Entries after “also recorded” stand apart in the source; their conditions may differ. Ends that are not written are not given here.
Columns and labels:
Format in all cases: cell-based, mouse
[1] = test system: TLR4 signaling (LPS-induced phosphorylation of ERK, JNK, p38); experiment: LPS-stimulated activation of MAPKs (pERK, pJNK, pP38), Western blot; conditions: for effect on LPS-induced activation (phosphorylation) of MAPKs (ERK, JNK): 40 μM, 1 h preincubation; for effect on LPS-induced activation (phosphorylation) of MAPKs (ERK, JNK) / effect on LPS-induced activation of ERK, cells preincubated with peptides only for 30 minutes / inhibition of LPS-induced activation of ERK: LPS 10 ng/ml; for inhibition of phosphorylation of ERK whether or not 100-fold excess LPS was used: peptide increased from 10 μM to 40 μM, LPS 10 ng/nl or 1 μg/ml; for effect on LPS-induced activation of ERK, cells preincubated with peptides only for 30 minutes: FIG. 5 and 7, 30 min preincubation; for inhibition of LPS-induced activation of ERK / effect on LPS-induced activation of p38: 40 μM BP
Method: (§1) FIG. 2. Effect of blocking peptides on the LPS-stimulated activation of MAPKs and Tyr701 STAT-1. Ten μg of total protein was loaded per lane. A representative blot of three separate experiments is shown. Other details are given in the Materials and Methods section and legend for FIG. 1.
(§2) FIG. 4. Comparative effect of BPs on TLR2-vs. TLR4-mediated activation of MAPKs (A) and IL-1β mRNA expression (B). For Western blot analysis, 4.5 x10^6 primary macrophages were preincubated without or with 40 μM BP and stimulated for 30 min with LPS (10 ng/ml) or Pam3Cys (P3C; 150 ng/ml). The results shown are a representative blot of three separate experiments. Experimental details for FIG. 4B are the same as reported in the legend to FIG. 1A.
FIG. 5. Effect of mutated TRAM BB loop peptides on LPS-induced activation of ERK. Details of the experiment are as in legend for FIG. 4, except for the cells were preincubated with peptides only for 30 minutes.
(§3) SDS-PAGE and Western blot analysis were performed as described previously (Medvedev et al., 2001, J. Immunol. 167, 2257) with minor modifications. Antibodies for detection of activated MAPKs (pERK, pJNK and pP38) were purchased from Cell Signaling Technology (Beverly, Mass.). IRF-1 was detected using a rabbit polyclonal antibody from Santa-Cruz (Santa Cruz, Calif.). Antibody for detection of tyrosine-701 phosphorylated STAT1 was purchased from Zymed Laboratories (San Francisco, Calif.).
Using antibodies specific for the phosphorylated (activated) forms of JNK, ERK, and p38, we next sought to examine the effect of BB-loop-containing inhibitory peptides on LPS-stimulated activation of MAPKs. LPS induces quick and transient activation of MAPKs in primary macrophages (FIG. 2A) that was not affected by the addition of CP. […] The TIRAP BP was the weakest BP; all MAPKs were activated in the presence of it, although to a lesser extent when compared to CP.

[2] = test system: TLR2 signaling (Pam3Cys-induced phosphorylation of ERK, JNK, p38); experiment: Pam3Cys-induced activation of MAPKs, Western blot; conditions: for effect on P3C-induced activation (phosphorylation) of ERK / effect on P3C-induced activation of p38: 40 μM; for effect on P3C-induced activation (phosphorylation) of ERK: P3C 150 ng/ml
Method: as §2, §3
Apart from the use of a CP, we sought to analyze further the specificity of the inhibitory effects of BB-loop peptides on TLR signaling. Therefore, we also tested the effect of the peptides on signal transduction elicited from TLR2.

[3] = test system: TLR4 signaling (IRF-1 protein); experiment: LPS-induced upregulation of IRF-1 protein, SDS-PAGE/Western; conditions: 100 ng/ml LPS, 1.5 h
Method: (§4) FIG. 3. Effect of blocking peptides on activation of IRF-3 and IRF-1. […] Primary mouse macrophages were stimulated with 100 ng/ml of LPS. Seventeen μg of total protein was loaded per lane of the native gel. Other details are as described in the legend for FIG. 1.
as §3
Importantly, MyD88 knockout macrophages are capable of inducing IRF-1 mRNA (Yamamoto et al., 2003, supra).

[4] = test system: TLR4 signaling (LPS-induced STAT-1 phosphorylation); experiment: LPS-induced phosphorylation of STAT-1, Western blot; conditions: 40 μM BP
Method: as §1, §3

[5] = test system: TLR4 signaling (IRF-3 dimerization); experiment: LPS-induced dimerization of IRF-3, native PAGE; conditions: 100 ng/ml LPS, 1.5 hr
Method: as §4
Native PAGE for detection of IRF-3 activation was performed with minor modifications (Iwamura et al., 2001, Genes Cells 6, 375). One×10^7 thioglycollate-elicited cells were plated into a 6 cm dish and washed with PBS to remove non-adherent cells. Primary macrophages were stimulated with 100 ng/ml of LPS for 1.5 hr and lysed in buffer containing 50 mM TRIS-HCl pH 7.5, 150 mM NaCl, 1 mM EDTA, 1% NP-40, 1 mM sodium orthovanadate and 1× Complete protease inhibitor cocktail (Roche, Mannheim, Germany). Lysates were mixed with native lysis buffer (Bio-Rad, Hercules, Calif.) supplemented with 1% deoxycholate. Fifteen to 20 μg protein per lane was electrophoresed on a non-reducing gel and immunoblotted. IRF-3 dimers and monomers were detected using rabbit anti-IRF-3 antibody (Zymed Laboratories) by Western analysis.
Interferon Regulatory Factors (IRFs) were first identified as important transcriptional mediators of the antiviral immune response (reviewed in Taniguchi et al., 2001, Annu. Rev. Immunol. 19, 623). Later, it was recognized that this family of transcription factors plays an essential role in signal transduction mediated by different TLRs. IRF-1 is regulated transcriptionally by signaling from different TLRs, as well as by cytokines induced by TLR engagement (e.g., IL-1, TNF, and IFN-β) (Fujita et al., 1989, Proc. Natl. Acad. Sci. USA 86, 9936). In contrast, IRF-3 is constitutively expressed in many cell types (Au et al., 1995, Proc. Natl. Acad. Sci. USA 92, 11675). Upon stimulation through TLR4 or TLR3, IRF-3 is phosphorylated at multiple sites in its C-terminus, and this modification enables it to dimerize and translocate to the nucleus where it targets IRF-3-responsive genes (Kawai et al., 2001, supra; Lin et al., 1999, Mol. Cell. Biol. 19, 2465).

[6] = test system: TLR4 signaling (LPS-induced IL-1β, MIP-1β, IFN-β, RANTES mRNA); experiment: LPS-induced gene expression in primary murine macrophages, real-time PCR; conditions: for inhibitory effect on LPS-induced expression of IL-1β, MIP-1β, IFN-β and RANTES mRNA: 40 μM BP, 1 h preincubation, 10 ng/ml LPS, mRNA 1 h after LPS; for effect on induction of IL1-β and IFN-β mRNA (cytokine induction) by LPS: 30 min preincubation with peptide
Method: FIG. 1. Effect of blocking peptides on the cytokine induction by LPS. Thioglycollate-elicited primary murine macrophages were preincubated in the presence of 40 μMof BP for one hour before stimulation with 10 ng/ml of LPS. (A) Quantitative real-time PCR analysis of gene expression. (B) Secretion of IL-1β and IL-6. Concentration of the cytokines was measured after overnight incubation of the cells in the presence of LPS and the peptides. (C) Sensitivity of the LPS-stimulated expression of IFN-β and IL-1β mRNA to varying concentrations of TRAM and MyD88 BP. Total mRNA was isolated 1 hour after LPS stimulation (A and C). *p<0.05; **p<0.01.
FIG. 6. Effect of mutant TRAM BB loop peptides on LPS-induced activation of IL1-β and IFN-β mRNA. Details of the experiments are as described in the legend for FIG. 1, except for the cells were preincubated with peptides only for 30 minutes.
C3H/OuJ mice were purchased from the Jackson Laboratory (Bar Harbor, Me.). Thioglycollate-elicited peritoneal macrophages were harvested and cultured in the presence of E. coli K235 LPS or Pam3Cys as described previously (Salkowski et al., 1999, J. Immunol. 164, 1529).
(§5) Total cellular RNA was extracted from macrophage cultures as described elsewhere and reversed transcribed using AMV Reverse Transcriptase (Promega, Madison, Wis.) and poly-T priming as recommended by the manufacturer. The resulting cDNA was quantified by real time PCR using SYBR Green PCR Master Mix (Applied Biosystems) and ABI Prism 7900HT cycler. Primers for detection of IL-1β, IFN-β, MIP-1β, […]RANTES, and HPRT mRNAs were designed using the Primer Express 2.0 program (Applied Biosystems). Relative gene expression was calculated using ΔCt method with HPRT as a housekeeping gene (1.8̂(CtHPRT−CtGene)) Statistical analysis was performed by one way ANOVA with repeated measures, followed by Dunnett's multiple comparison post hoc test with p≦0.05 chosen as the level of significance.
Mice with targeted mutations in MyD88 (Kawai et al., 2001, supra; Toshchakov et al., 2002, supra) or TIRAP (Yamamoto et al., 2002, Nature 420, 324) retain the capacity to signal through the MyD88-independent pathway. […] Therefore, the first question we sought to address experimentally is whether interactions of the BB-loops of the TIR domains of these adapters affect protein interactions leading to gene expression. To this end, we designed cell permeable peptides whose sequences correspond to the BB-loops of each adapter molecule and measured the ability of each BP to interfere with the induction of immediate response genes induced via MyD88-dependent and independent pathways. […] All BB-loop-containing peptides exerted an inhibitory effect on LPS-induced expression of MyD88-dependent IL-1β and […], as well as MyD88-independent IFN-β and RANTES mRNA, as measured by real-time PCR (FIG. 1A).

[7] = test system: TLR2 signaling (Pam3Cys-induced IL-1β mRNA); experiment: Pam3Cys-induced cytokine mRNA expression, real-time PCR
Method: as §2, §5
Similar to their effect on activation of MAPKs, BPs were much weaker inhibitors with respect to Pam3Cys- vs. LPS-induced expression of IL-1β mRNA.

[8] = listed as Antennapedia DD loop peptide

Row | Sequence | effect on LPS-induced activation (phosphorylation) of MAPKs (ERK, JNK) [1] | effect on LPS-induced upregulation of IRF-1 protein [3] | inhibition of LPS-induced Tyr701 phosphorylation of STAT-1 [4] | inhibition of phosphorylation of ERK whether or not 100-fold excess LPS was used [1] | inhibition of LPS-induced dimerization of IRF-3 [5] | inhibitory effect on LPS-induced expression of IL-1β, MIP-1β, IFN-β and RANTES mRNA [6] | effect on induction of IL1-β and IFN-β mRNA (cytokine induction) by LPS [6] | effect on P3C-induced cytokine induction [7] | other results
1 | RQIKIWFQNRRMKWKKLHERNFVPGKSIVE (TLR1/6 blocking peptide) [TLR1/6-BP] | affected neither | – | – | – | – | – | – | – | inhibition of Pam3Cys-induced phosphorylation of MAPKs ([2]; 40 μM BP, Pam3Cys 150 ng/ml, 30 min): affected neither
2 | RQIKIWFQNRRMKWKKIVFAEMPCGRLHLQ [TRAM-BP] | strongly blocked | strongest inhibitors | strongly inhibited | effectively inhibited | significantly inhibited | strongest | – | – | –
3 | IVFAAMPCGRLHLQ [E/A mutant] | – | – | – | – | – | – | did not affect considerably inhibitory capacity | – | effect on LPS-induced activation of ERK, cells preincubated with peptides only for 30 minutes [1]: did not affect considerably inhibitory capacity
4 | RQIKIWFONRRMKWKKFCEEFQVPGRGELH (RQIKIWFQNRRMKWKKFCEEFQVPGRGELH; TRIF blocking peptide) [TRIF-BP] | strongly inhibited | intermediate efficacy | strongly inhibited | – | significantly inhibited | – | – | – | inhibition of LPS-induced activation of ERK [1]: incomplete
5 | KYKAMKKDFPSILR [MyD88 DD loop peptide] | – | – | – | – | – | – | not inhibitory | not inhibitory | effect on LPS-induced activation of ERK, cells preincubated with peptides only for 30 minutes [1]: not inhibitory; effect on LPS-induced activation of ERK, cells preincubated with peptides only for 30 minutes [1, 8]: does not inhibit; effect on P3C-induced activation (phosphorylation) of ERK [2]: not inhibitory; effect on P3C-induced activation (phosphorylation) of ERK [2, 8]: does not inhibit
6 | RQIKIWFQNRRMKWKKLHYRDFIPGVAIAA [TLR4-BP] | – | – | – | effectively inhibited | – | – | inhibitory | inhibitory | effect on LPS-induced activation of p38 [1]: did not inhibit; inhibition of LPS-induced activation of ERK ([1]; listed as TLR4 BB peptide): potent inhibitors; also recorded: inhibit; effect on P3C-induced activation of p38 [2]: did not inhibit; effect on P3C-induced activation (phosphorylation) of ERK ([2]; listed as TLR4 BB peptide): to a lesser extend; also recorded: to some extent
7 | RQIKIWFQNRRMKWKKSLHGRGDPMEAFII (Control peptide - BLAST generated) [reference compound] | not affected | strong upregulation | – | – | – | not significantly affected | – | – | effect on Pam3Cys-induced expression of IL-1β mRNA ([7]; 40 μM, Pam3Cys): not significantly affected
8 | RQIKIWFQNRRMKWKKLQLRDAAPGGAIVS (TIRAP blocking peptide) [TIRAP-BP] | weakest BP | weakest | did not completely block | – | inhibition was not as complete | consistently weakest | – | – | –
9 | RQIKIWFQNRRMKWKKLHKRDFVPGKWIID [TLR2-BP] | – | – | – | effectively inhibited | – | – | inhibitory | inhibitory | effect on LPS-induced activation of p38 [1]: did not inhibit; inhibition of LPS-induced activation of ERK ([1]; listed as TLR2 BB peptide): potent inhibitors; also recorded: inhibit; effect on P3C-induced activation of p38 [2]: did not inhibit; effect on P3C-induced activation (phosphorylation) of ERK ([2]; listed as TLR2 BB peptide): diminished and delayed; also recorded: to some extent

From patent publication US20100069297A1, “Selective Inhibition of TLR4 Signaling” (priority 2005, published 2010)
